Values quoted from earlier work, collected in patent publication US20110256058A1, “Novel Peptides and Uses Thereof” (UNIVERSITY OF SOUTHERN CALIFORNIA, priority 2007, published 2011).

Tested on: α2 aI domain
Conditions: literature; for conformational effect on α2 receptor: open conformation of α2 receptor

Substance | conformational effect on α2 receptor | binding to aI domain | inhibition of aI domain / α2β1 binding to collagen and laminin
CARKKHDC [RKKH peptide of structural studies in the literature] | induce conformational change |  | 
CTRKKHDC [RKKH peptide of structural studies in the literature] | induce conformational change |  | 
CTRKKHDNAQC |  | binds to aI domain | prevents its binding to collagen (type I, IV) and laminin (type 1)
RSECD |  |  | fails to inhibit collagen binding
